SMILES strings stand for the structures. *1 amine or outer side, *2 acyl side, *3 side chain or, on linkers, in order; H or OH if unused. Where a SMILES comes first, the peptide text is derived from it. Bridges are numbered along the chain shown (N, C = ends). [ ]: non-standard residue; d: D form. The star is where a group is joined. ξ: configuration not given here. Phe(4-COOH) = N[C@@H](Cc1ccc(C(=O)O)cc1)C(=O)O; Bip = N[C@@H](Cc1ccc(-c2ccccc2)cc1)C(=O)O; γGlu = O=C(O)[C@H](CCC(=O)[*:2])N[*:1]; 3Pal = N[C@@H](Cc1cccnc1)C(=O)O; 4Pal = N[C@@H](Cc1ccncc1)C(=O)O; Cha = N[C@@H](CC1CCCCC1)C(=O)O; Ile(3ξ) = CCC(C)[C@H](N)C(=O)O; Thr(3ξ) = CC(O)[C@H](N)C(=O)O; dOrn = NCCC[C@@H](N)C(=O)O; Carboxymethyl = O=C(O)C*; NMeA = CN[C@@H](C)C(=O)O; Orn = NCCC[C@H](N)C(=O)O; dDap = NC[C@@H](N)C(=O)O; Aun = NCCCCCCCCCCC(=O)O; Dab = NCC[C@H](N)C(=O)O; Dap = NC[C@H](N)C(=O)O; AEEA = NCCOCCOCC(=O)O

For the assay, the target named is T1, PD-1/PD-L1 interaction (PE-labeled human PD-L1-Ig binding to Jurkat cell line over-expressing human PD-1) (Homo sapiens, UniProt Q15116).
T1 construct: expressed in transfected cells; host or cells: Jurkat
T1 sequence (Q15116 25-288): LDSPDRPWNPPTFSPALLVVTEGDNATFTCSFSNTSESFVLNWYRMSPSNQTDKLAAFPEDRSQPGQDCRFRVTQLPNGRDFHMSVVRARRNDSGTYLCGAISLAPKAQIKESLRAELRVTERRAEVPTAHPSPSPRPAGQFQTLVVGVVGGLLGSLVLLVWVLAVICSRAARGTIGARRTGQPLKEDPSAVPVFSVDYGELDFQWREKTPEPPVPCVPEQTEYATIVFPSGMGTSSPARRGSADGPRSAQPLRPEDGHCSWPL
Nature of the assay: Jurkat-PD-1 Cell Binding High-Content Screening Assay (CBA). As to conditions: Jurkat-hPD-1 cells, PE-labeled PD-L1-Ig 20 nM final; read-out: Jurkat HPD1 PDL1 IC50. The method in brief: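 High-content imaging read-out of PE-PD-L1-Ig binding (20 nM final, 1 h) to Jurkat-hPD-1 cells, after 2 h compound exposure at 37 °C in DMEM with 10% FCS. Nuclei counterstained with Hoechst 33342 after paraformaldehyde fixation.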
With `CCC(C)[C@@H]1NC(=O)[C@H](Cc2ccc(-c3ccccc3)cc2)NC(=O)[C@H](CC(C)C)NC(=O)[C@H](Cc2c[nH]c3ccccc23)NC(=O)[C@H](CC(=O)O)NC(=O)[C@H](Cc2ccc(OCC(=O)O)cc2)NC(=O)[C@H](C(C)O)NC(=O)CSC[C@@H](C(=O)N[C@H](CC(N)=O)C(=O)NCCOCCOCC(=O)NCCCCCCCCCCC(=O)O)NC(=O)[C@H](CO)NC(=O)[C@H](C(C)C)NC(=O)[C@H](CC(C)C)NC(=O)[C@H](CCN)NC(=O)[C@@H](CC(C)C)NC(=O)[C@H](C)N(C)C1=O` (stereo partly drawn) [Example 2058] ({CH2CO}-[Thr(3ξ)]Y(Carboxymethyl)DWL[Bip][Ile(3ξ)][NMeA][dL][Dab]LVSC[dN][AEEA][Aun]-OH; thioether N-14), the IC50 (usually the point on the concentration scale where inhibition reaches its midpoint) was 59.9 nM. To `CCC(C)[C@@H]1NC(=O)[C@H](Cc2ccc(-c3ccccc3)cc2)NC(=O)[C@H](C(C)C)NC(=O)[C@H](Cc2c[nH]c3ccccc23)NC(=O)[C@H](CC(=O)O)NC(=O)[C@H](Cc2ccc(O)cc2)NC(=O)[C@H](CC(N)=O)NC(=O)CSC[C@@H](C(=O)N[C@H](CC(N)=O)C(=O)NCCOCCOCC(=O)NCCCCCCCCCCC(=O)O)NC(=O)[C@H](CO)NC(=O)[C@H](C(C)C)NC(=O)[C@H](CC(C)C)NC(=O)[C@H](CCN)NC(=O)[C@@H](CC(C)C)NC(=O)[C@H](C)N(C)C1=O` (stereo partly drawn) [Example 2059] ({CH2CO}-NYDWV[Bip][Ile(3ξ)][NMeA][dL][Dab]LVSC[dN][AEEA][Aun]-OH; thioether N-14) belongs 34.2 nM; to `CCC(C)[C@@H]1NC(=O)[C@H](Cc2ccc(-c3ccccc3)cc2)NC(=O)[C@H](C(C)C)NC(=O)[C@H](Cc2c[nH]c3ccccc23)NC(=O)[C@H](CC(=O)O)NC(=O)[C@H](Cc2ccc(OCC(=O)O)cc2)NC(=O)[C@H](Cc2cccnc2)NC(=O)CSC[C@@H](C(=O)N[C@H](CC(N)=O)C(=O)NCCOCCOCC(=O)N[C@@H](CCC(=O)N[C@@H](CCCN)C(=O)NCCCCCCCCCCC(=O)O)C(=O)O)NC(=O)[C@H](CO)NC(=O)[C@H](C(C)C)NC(=O)[C@H](CC(C)C)NC(=O)[C@H](CCN)NC(=O)[C@@H](CC(C)C)NC(=O)[C@H](C)N(C)C1=O` (stereo partly drawn) [Example 2060] ({CH2CO}-[3Pal]Y(Carboxymethyl)DWV[Bip][Ile(3ξ)][NMeA][dL][Dab]LVSC[dN][AEEA][γGlu][Orn][Aun]-OH; thioether N-14), 78 nM.

As to `CCC(C)[C@@H]1NC(=O)[C@H](Cc2ccc(-c3ccccc3)cc2)NC(=O)[C@H](CC(C)C)NC(=O)[C@H](Cc2c[nH]c3ccccc23)NC(=O)[C@H](CC(=O)O)NC(=O)[C@H](Cc2ccc(O)cc2)NC(=O)[C@H](Cc2ccncc2)NC(=O)CSC[C@@H](C(=O)N[C@H](CC(N)=O)C(=O)NCCOCCOCC(=O)N[C@@H](CCN)C(=O)NCCOCCOCC(=O)NCCCCCCCCCCC(=O)O)NC(=O)[C@H](CO)NC(=O)[C@H](C(C)C)NC(=O)[C@H](CC(C)C)NC(=O)[C@H](CC(N)=O)NC(=O)[C@@H](CC(C)C)NC(=O)[C@H](C)N(C)C1=O` (stereo partly drawn) [Example 2061] ({CH2CO}-[4Pal]YDWL[Bip][Ile(3ξ)][NMeA][dL]NLVSC[dN][AEEA][Dab][AEEA][Aun]-OH; thioether N-14), the IC50 was found to be 777 nM. As for `CCC(C)[C@@H]1NC(=O)[C@H](Cc2ccc(-c3ccccc3)cc2)NC(=O)[C@H](CC(C)C)NC(=O)[C@H](Cc2c[nH]c3ccccc23)NC(=O)[C@H](CC(=O)O)NC(=O)[C@H](Cc2ccc(OCC(=O)O)cc2)NC(=O)[C@H](Cc2ccncc2)NC(=O)CSC[C@@H](C(=O)NCCOCCOCC(=O)N[C@@H](CCCN)C(=O)NCCCCCCCCCCC(=O)O)NC(=O)[C@H](CO)NC(=O)[C@H](C(C)C)NC(=O)[C@H](CC(C)C)NC(=O)[C@H](CC(N)=O)NC(=O)[C@@H](CC(C)C)NC(=O)[C@H](C)N(C)C1=O` (stereo partly drawn) [Example 2062] ({CH2CO}-[4Pal]Y(Carboxymethyl)DWL[Bip][Ile(3ξ)][NMeA][dL]NLVSC[AEEA][Orn][Aun]-OH; thioether N-14), the IC50 is 38.1 nM.

On to `CCC(C)[C@@H]1NC(=O)[C@H](Cc2ccc(-c3ccccc3)cc2)NC(=O)[C@H](CC(C)C)NC(=O)[C@H](Cc2c[nH]c3ccccc23)NC(=O)[C@H](CC(=O)O)NC(=O)[C@H](Cc2ccc(O)cc2)NC(=O)[C@H](CC(N)=O)NC(=O)CSC[C@@H](C(=O)N[C@H](CC(N)=O)C(=O)NCCOCCOCC(=O)NCCCCCCCCCCC(=O)O)NC(=O)[C@H](CO)NC(=O)[C@H](C(C)C)NC(=O)[C@H](CC(C)C)NC(=O)[C@H](CCN)NC(=O)[C@@H](CC(C)C)NC(=O)[C@H](C)N(C)C1=O` (stereo partly drawn) [Example 2063] ({CH2CO}-NYDWL[Bip][Ile(3ξ)][NMeA][dL][Dab]LVSC[dN][AEEA][Aun]-OH; thioether N-14), for which the IC50 is 65 nM. To `CCC(C)[C@@H]1NC(=O)[C@H](Cc2ccc(-c3ccccc3)cc2)NC(=O)[C@H](CC(C)C)NC(=O)[C@H](Cc2c[nH]c3ccccc23)NC(=O)[C@H](CC(=O)O)NC(=O)[C@H](Cc2ccc(OCC(=O)O)cc2)NC(=O)[C@H](Cc2ccncc2)NC(=O)CSC[C@@H](C(=O)N[C@H](CC(N)=O)C(=O)NCCOCCOCC(=O)NCCCCCCCCCCC(=O)O)NC(=O)[C@H](CO)NC(=O)[C@H](C(C)C)NC(=O)[C@H](CC(C)C)NC(=O)[C@H](CCN)NC(=O)[C@@H](CC(C)C)NC(=O)[C@H](C)N(C)C1=O` (stereo partly drawn) [Example 2064] ({CH2CO}-[4Pal]Y(Carboxymethyl)DWL[Bip][Ile(3ξ)][NMeA][dL][Dab]LVSC[dN][AEEA][Aun]-OH; thioether N-14) belongs 21.1 nM; to `CCC(C)[C@@H]1NC(=O)[C@H](Cc2ccc(-c3ccccc3)cc2)NC(=O)[C@H](CC(C)C)NC(=O)[C@H](Cc2c[nH]c3ccccc23)NC(=O)[C@H](CC(=O)O)NC(=O)[C@H](Cc2ccc(C(=O)O)cc2)NC(=O)[C@H](Cc2ccc(OCC(=O)O)cc2)NC(=O)CSC[C@@H](C(=O)N[C@H](CC(N)=O)C(=O)NCCOCCOCC(=O)NCCCCCCCCCCC(=O)O)NC(=O)[C@H](CO)NC(=O)[C@H](C(C)C)NC(=O)[C@H](CC2CCCCC2)NC(=O)[C@H](CCN)NC(=O)[C@@H](CC(C)C)NC(=O)[C@H](C)N(C)C1=O` (stereo partly drawn) [Example 2065] ({CH2CO}-Y(Carboxymethyl)[Phe(4-COOH)]DWL[Bip][Ile(3ξ)][NMeA][dL][Dab][Cha]VSC[dN][AEEA][Aun]-OH; thioether N-14), 17.3 nM.

In the case of `CCC(C)[C@@H]1NC(=O)[C@H](Cc2ccc(-c3ccccc3)cc2)NC(=O)[C@H](CC(C)C)NC(=O)[C@H](Cc2c[nH]c3ccccc23)NC(=O)[C@H](CC(=O)O)NC(=O)[C@H](Cc2ccc(C(=O)O)cc2)NC(=O)[C@H](Cc2ccc(OCC(=O)O)cc2)NC(=O)CSC[C@@H](C(=O)NCCOCCOCC(=O)N[C@@H](CN)C(=O)NCCCCCCCCCCC(=O)O)NC(=O)[C@H](CO)NC(=O)[C@H](C(C)C)NC(=O)[C@H](CC2CCCCC2)NC(=O)[C@H](CC(N)=O)NC(=O)[C@@H](CC(C)C)NC(=O)[C@H](C)N(C)C1=O` (stereo partly drawn) [Example 2066] ({CH2CO}-Y(Carboxymethyl)[Phe(4-COOH)]DWL[Bip][Ile(3ξ)][NMeA][dL]N[Cha]VSC[AEEA][Dap][Aun]-OH; thioether N-14), the IC50 stood at 110 nM.

On to `CCC(C)[C@@H]1NC(=O)[C@H](Cc2ccc(-c3ccccc3)cc2)NC(=O)[C@H](C(C)C)NC(=O)[C@H](Cc2c[nH]c3ccccc23)NC(=O)[C@H](CC(=O)O)NC(=O)[C@H](Cc2ccc(OCC(=O)O)cc2)NC(=O)[C@H](Cc2ccncc2)NC(=O)CSC[C@@H](C(=O)N[C@H](CN)C(=O)NCCOCCOCC(=O)N[C@@H](CCC(=O)NCCCCCCCCCCC(=O)O)C(=O)O)NC(=O)[C@H](CO)NC(=O)[C@H](C(C)C)NC(=O)[C@H](CC2CCCCC2)NC(=O)[C@H](CC(N)=O)NC(=O)[C@@H](CC(C)C)NC(=O)[C@H](C)N(C)C1=O` (stereo partly drawn) [Example 2067] ({CH2CO}-[4Pal]Y(Carboxymethyl)DWV[Bip][Ile(3ξ)][NMeA][dL]N[Cha]VSC[dDap][AEEA][γGlu][Aun]-OH; thioether N-14), for which the IC50 was found to be 35.2 nM. As for `CCC(C)[C@@H]1NC(=O)[C@H](Cc2ccc(-c3ccccc3)cc2)NC(=O)[C@H](C(C)C)NC(=O)[C@H](Cc2c[nH]c3ccccc23)NC(=O)[C@H](CC(=O)O)NC(=O)[C@H](Cc2ccc(O)cc2)NC(=O)[C@H](Cc2ccncc2)NC(=O)CSC[C@@H](C(=O)N[C@@H](CN)C(=O)NCCOCCOCC(=O)NCCCCCCCCCCC(=O)O)NC(=O)[C@H](C(C)O)NC(=O)[C@H](C(C)C)NC(=O)[C@H](CC2CCCCC2)NC(=O)[C@H](CC(N)=O)NC(=O)[C@@H](CC(C)C)NC(=O)[C@H](C)N(C)C1=O` (stereo partly drawn) [Example 2068] ({CH2CO}-[4Pal]YDWV[Bip][Ile(3ξ)][NMeA][dL]N[Cha]V[Thr(3ξ)]C[Dap][AEEA][Aun]-OH; thioether N-14), the figure is 106 nM; as for `CCC(C)[C@@H]1NC(=O)[C@H](Cc2ccc(-c3ccccc3)cc2)NC(=O)[C@H](CC(C)C)NC(=O)[C@H](Cc2c[nH]c3ccccc23)NC(=O)[C@H](CC(=O)O)NC(=O)[C@H](Cc2ccc(C(=O)O)cc2)NC(=O)[C@H](Cc2ccc(OCC(=O)O)cc2)NC(=O)CSC[C@@H](C(=O)N[C@@H](CC(N)=O)C(=O)N[C@@H](CCC(=O)NCCCCCCCCCCC(=O)O)C(=O)O)NC(=O)[C@H](CO)NC(=O)[C@H](C(C)C)NC(=O)[C@H](CC2CCCCC2)NC(=O)[C@H](CCN)NC(=O)[C@@H](CC(C)C)NC(=O)[C@H](C)N(C)C1=O` (stereo partly drawn) [Example 2069] ({CH2CO}-Y(Carboxymethyl)[Phe(4-COOH)]DWL[Bip][Ile(3ξ)][NMeA][dL][Dab][Cha]VSCN[γGlu][Aun]-OH; thioether N-14), 24.5 nM. As for `CCC(C)[C@@H]1NC(=O)[C@H](Cc2ccc(-c3ccccc3)cc2)NC(=O)[C@H](CC(C)C)NC(=O)[C@H](Cc2c[nH]c3ccccc23)NC(=O)[C@H](CC(=O)O)NC(=O)[C@H](Cc2ccc(O)cc2)NC(=O)[C@H](Cc2ccncc2)NC(=O)CSC[C@@H](C(=O)N[C@H](CCCN)C(=O)NCCOCCOCC(=O)NCCCCCCCCCCC(=O)O)NC(=O)[C@H](CO)NC(=O)[C@H](C(C)C)NC(=O)[C@H](CC2CCCCC2)NC(=O)[C@H](CC(N)=O)NC(=O)[C@@H](CC(C)C)NC(=O)[C@H](C)N(C)C1=O` (stereo partly drawn) [Example 2070] ({CH2CO}-[4Pal]YDWL[Bip][Ile(3ξ)][NMeA][dL]N[Cha]VSC[dOrn][AEEA][Aun]-OH; thioether N-14), the IC50 amounted to 97.4 nM.

These data come from US20260070945A1, “MACROCYCLIC IMMUNOMODULATORS” (Bristol-Myers Squibb Company, priority 2022, published 2026).
